# US6369106B1 (Yissum Research Development Company of the Hebrew …, priority 1996, dated 2002)
# Columns and labels:
# [1] = test system: Neuroblastoma SHSY5Y (NB) cells; assay: Protection from oxidative stress in vitro, neutral red survival assay; type: cell-based; settings: compound at 0.1 mM, 6-OHDA 0.1-0.25 mM, MPP+ 0.5-2 mM, 24 hours
# Method: Protection from oxidative stress in vitro: Neuroblastoma SHSY5Y (NB) cells were maintained in Dulbeco's Modified Eagle's Medium (DMEM), supplemented with 8% FCS and 8% horse serum, penicillin (25 μg/ml), streptomycin (25 μg/ml), 2 mM L-glutamine and 400 μg/ml G418 (Gibco/BRL). For protection experiments cells were subcultured (in 2% serum) to poly-L-lysine-coated 96-well microtiter plates (Nunc), 100 μl of 5×10^5 cells/ml, CEA was applied to the cells in each well and 4 hours later DA, L-dopa (levodopa), 6-OHDA and MPP+ were added for 24 hours.
# Survival was assayed by adding neutral red (0.34%, Sigma) to cells in DCCM-1 medium (0.1 ml/well, Bet-Haemek) and incubation for 2 hour at 37° C. The cells were then washed with cold PBS containing 10 mM MgCl2 and the dye was dissolved in 50% ethanol in 50% Somerson buffer (70 mM sodium citrate, 30 mM citric acid, 0.1 N HCl). ELISA reader (590 nm) was used to measure the remaining color intensity.
# [2] = Crossing the blood-brain-barrier: compound level in brain extracts by HPLC after IP injection; type: in vivo, C57BL/6J mice; settings: mice, IP 0.25-4 mg, 15 min after injection
# Method: Detection of compound j (referred to in this Example also as CEA) was established using high performance liquid chromatography (HPLC). To this end, CEA was treated with a fluorescent thiolyte reagent (monobromobimane reagent) and analyzed on an HPLC column.
# Crossing the blood-brain-barrier: In vivo experiments were carried out on C57BL/6J mice (15 grams) injected IP with compound J. After incubation (15 min, 60 min or 4 hours) the mice were anesthetized with ether and blood samples were drawn. Then mice underwent perfusion with 50 ml of saline, injected into the right ventricle. The levels of compound I in the brain and in the plasma were detected by selective fluorescent labeling using high performance liquid chromatography (HPLC).
# Increasing amounts of compound J were injected IP and 15 min later, mice were perfused with saline and compound J levels in the brain extracts were determined by HPLC chromatography (FIG. 5b), as compared to a control, pure, uninjected compound J (FIG. 5a).
# GSH levels = assay: Brain GSH levels after IP injection (HPLC); type: in vivo, C57BL/6J mice
compound,measurement,setting,value
CC(=O)NC(CS)C(N)=O (stereo not shown) [compound J],"Protection of NB cells against toxicity (>50%) of DA, L-dopa, 6-OHDA and MPP+",[1],protect the cells
same,"Protection of NB cells against toxicity (>50%) of DA, L-dopa, 6-OHDA and MPP+",[1]; listed as Compound J,protect NB cells
same,Compound level in the brain,[2],concentration-dependent increase
same,"Endogenous GSH levels in mice brain, effect in words",GSH levels,increases endogenous GSH levels
